Patent US20240360174A1, “CELL-PENETRATING PEPTIDE SEQUENCES” (Ohio State Innovation Foundation, priority 2016, published 2024)
Bridge positions count the residues as written; N and C are the ends. Square brackets hold non-standard residues; d marks the D form. Ends that are not written are not given here. 2Nal = N[C@@H](Cc1ccc2ccccc2c1)C(=O)O; d2Nal = N[C@H](Cc1ccc2ccccc2c1)C(=O)O; Pip = O=C(O)[C@@H]1CCCCN1

Each substance was assayed on HeLa cells (assay: Cellular uptake / cytosolic delivery efficiency of NF-labelled peptides by flow cytometry). Conditions: 2 h, 5 mM naphthofluorescein-labelled peptide, relative to CPP 1 (100%), mean ± S.D. of three independent experiments.
Format: cell-based
From the text: Absolute cytosolic delivery efficiency is the ratio of cytosolic concentration of a CPP (or a CPP-cargo conjugate) over the concentration of the CPP (or the CPP-cargo conjugate) in the growth medium. Relative cytosolic delivery efficiency refers to the concentration of a CPP in the cytosol compared to the concentration of a control CPP in the cytosol. Quantification can be achieved by fluorescently labeling the CPP (e.g., with a FTIC dye) and measuring the fluorescence intensity using techniques well-known in the art.
In particular embodiments, relative cytosolic delivery efficiency is determined by comparing (i) the amount of a CPP of the invention internalized by a cell type (e.g., HeLa cells) to (ii) the amount of the control CPP internalized by the same cell type. To measure relative cytosolic delivery efficiency, the cell type may be incubated in the presence of a cell-penetrating peptide of the invention for a specified period of time (e.g., 30 minutes, 1 hour, 2 hours, etc.) after which the amount of the CPP internalized by the cell is quantified using methods known in the art, e.g., fluorescence microscopy. Separately, the same concentration of the control CPP is incubated in the presence of the cell type over the same period of time, and the amount of the control CPP internalized by the cell is quantified.
To determine cellular uptake efficiency of the CPPs disclosed herein, HeLa cells were cultured in 12-well plates (1.5×10^5 cells per well) overnight. The cells were incubated for 2 h with […] naphthofluorescein (NF)-labelled peptide in cellular media. At the end of incubation, the cells were washed with DPBS twice, detached from the plate with 0.25% trypsin, diluted into clear DMEM, pelleted at 250 g for 5 min, washed twice with DPBS, resuspended in DPBS, and analyzed on a BD FACS LSR II flow cytometer. For NF-labelled peptides, a 633-nm laser was used for excitation and the fluorescence emission was analyzed in the APC channel. Absolute cellular uptake efficiency was determined by comparing the concentration (via fluorescence intensity) of the CPP in the cytosol to the concentration in the extracellular medium.

Row | Substance | Relative Cytosolic Delivery Efficiency [%]
1 | cyclo(FΦRRRQ) (cyclo(F[2Nal]RRRRQ); SMILES N=C(N)NCCC[C@@H]1NC(=O)[C@H](CCCNC(=N)N)NC(=O)[C@H](CCCNC(=N)N)NC(=O)[C@H](Cc2ccc3ccccc3c2)NC(=O)[C@H](Cc2ccccc2)NC(=O)[C@H](CCC(N)=O)NC(=O)[C@H](CCCNC(=N)N)NC1=O) [SAR 1, control CPP, reference compound] | 100 ± 6
2 | cyclo(FRFRRQ) (cyclic) [SAR 22] | 15 ± 3
3 | SAR 68 (CWWRRRRC; disulfide 1-8) | 51
4 | cyclo(RRFFRRRQ) (cyclic) [SAR 47] | 115 ± 20
5 | cyclo(Pip-Nal-nal-Arg-arg-arg-Glu) [Pin1 23] | 215 ± 86
6 | cyclo(FFFRRRQ) (cyclic) [SAR 34] | 231 ± 43
7 | cyclo(Pip-Nal-Arg-Glu-arg-arg-glu) (cyclo([Pip][2Nal]RE[dR][dR][dE]); SMILES N=C(N)NCCC[C@@H]1NC(=O)[C@H](Cc2ccc3ccccc3c2)NC(=O)[C@@H]2CCCCN2C(=O)[C@@H](CCC(=O)O)NC(=O)[C@@H](CCCNC(=N)N)NC(=O)[C@@H](CCCNC(=N)N)NC(=O)[C@H](CCC(=O)O)NC1=O) [Pin1 15] | 7.7 ± 0.5
8 | cyclo(RFFRRRQ) (cyclic) [SAR 31] | 63 ± 19
9 | cyclo(RRFFFRQ) (cyclic) [SAR 37] | 172 ± 24
10 | cyclo(RFFFRRRQ) (cyclic) [SAR 48] | 167 ± 10
11 | SAR 70 (CFWRRRRC; disulfide 1-8) | 49
12 | cyclo(ΦFfrRrQ) (cyclo([d2Nal]F[dF][dR]R[dR]Q); SMILES N=C(N)NCCC[C@@H]1NC(=O)[C@@H](CCCNC(=N)N)NC(=O)[C@@H](Cc2ccccc2)NC(=O)[C@H](Cc2ccccc2)NC(=O)[C@@H](Cc2ccc3ccccc3c2)NC(=O)[C@H](CCC(N)=O)NC(=O)[C@@H](CCCNC(=N)N)NC1=O) [SAR 63] | 50 ± 9
13 | SAR 71 (CWWWRRRC; disulfide 1-8) | 135
14 | Ac-(Lys-fFRrRrD) (K[dF]FR[dR]R[dR]D; not fully specified (N-terminus, bridges); printed as Ac-(Lys-fFRrRrD); also: cyclic, closure sites not given here) [SAR 66] | 129 ± 9
15 | cyclo(FRRFFRQ) (cyclic) [SAR 40] | 109 ± 11
16 | cyclo(FRRFRFQ) (cyclic) [SAR 41] | 101 ± 16
17 | cyclo(FfFrRrQ) (cyclo(F[dF]F[dR]R[dR]Q); SMILES N=C(N)NCCC[C@@H]1NC(=O)[C@@H](CCCNC(=N)N)NC(=O)[C@H](Cc2ccccc2)NC(=O)[C@@H](Cc2ccccc2)NC(=O)[C@H](Cc2ccccc2)NC(=O)[C@H](CCC(N)=O)NC(=O)[C@@H](CCCNC(=N)N)NC1=O) [SAR 60] | 205 ± 30
18 | cyclo(fΦfrRrQ) (cyclo([dF][2Nal][dF][dR]R[dR]Q); SMILES N=C(N)NCCC[C@@H]1NC(=O)[C@@H](CCCNC(=N)N)NC(=O)[C@@H](Cc2ccccc2)NC(=O)[C@H](Cc2ccc3ccccc3c2)NC(=O)[C@@H](Cc2ccccc2)NC(=O)[C@H](CCC(N)=O)NC(=O)[C@@H](CCCNC(=N)N)NC1=O) [SAR 62] | 357 ± 59
19 | cyclo(RFFRFRQ) (cyclic) [SAR 43] | 96 ± 31
20 | SAR 69 (CWWVRRRRC; disulfide 1-9) | 67
21 | cyclo(Pip-Nal-Nal-Arg-arg-arg-glu) [Pin1 17] | 506 ± 120
22 | cyclo(Pip-Nal-nal-Arg-arg-arg-glu) [Pin1 24] | 141 ± 64
23 | cyclo(FRRFRQ) (cyclic) [SAR 23] | 38 ± 10
24 | cyclo(fFfRrRQ) (cyclo([dF]F[dF]R[dR]RQ); SMILES N=C(N)NCCC[C@@H]1NC(=O)[C@@H](CCCNC(=N)N)NC(=O)[C@H](CCCNC(=N)N)NC(=O)[C@@H](Cc2ccccc2)NC(=O)[C@H](Cc2ccccc2)NC(=O)[C@@H](Cc2ccccc2)NC(=O)[C@H](CCC(N)=O)NC1=O) [SAR 59] | 185 ± 91
25 | cyclo(Pip-Nal-phe-Arg-arg-arg-Glu) (cyclo([Pip][2Nal][dF]R[dR][dR]E); SMILES N=C(N)NCCC[C@@H]1NC(=O)[C@@H](Cc2ccccc2)NC(=O)[C@H](Cc2ccc3ccccc3c2)NC(=O)[C@@H]2CCCCN2C(=O)[C@H](CCC(=O)O)NC(=O)[C@@H](CCCNC(=N)N)NC(=O)[C@@H](CCCNC(=N)N)NC1=O) [Pin1 22] | 15 ± 6
26 | cyclo(GΦRRRQ) [SAR 25] (cyclo(G[2Nal]RRRQ); SMILES N=C(N)NCCC[C@@H]1NC(=O)[C@H](Cc2ccc3ccccc3c2)NC(=O)CNC(=O)[C@H](CCC(N)=O)NC(=O)[C@H](CCCNC(=N)N)NC(=O)[C@H](CCCNC(=N)N)NC1=O) | 49 ± 5
27 | cyclo(FFRRFRRQ) (cyclic) [SAR 50] | 46 ± 2
28 | cyclo(FFRRFRQ) (cyclic) [SAR 39] | 86 ± 12
